Results reported in ChEMBL document CHEMBL1129877, “Design, synthesis and biological evaluation of 1,3-diaminopropanes: a new class of polyamine analogs as leishmanicidal agents” (1997).

Columns and labels:
Assay type in all cases: functional
[1] = system: Leishmania donovani; assay: In vivo anti-leishmanial activity to Leishmania donovani infected hamster after intraperitoneal dose of 50 mg/kg X 5 on day 7th; conditions: ip
[2] = Tested in vivo for anti-leishmanial activity against Leishmania donovani infected hamster intraperitoneal dose of 100 mg/kg X 5 on day 7th; conditions: ip
[3] = Tested in vivo for anti-leishmanial activity against Leishmania donovani infected hamster auratus after oral dose of 50 mg/kg X 5 on day 7th
[4] = Tested in vivo for anti-leishmanial activity against Leishmania donovani infected hamster intraperitoneal dose of 25 mg/kg X 5 on day 7th; conditions: ip
[5] = Tested in vivo for anti-leishmanial activity against Leishmania donovani infected hamster auratus after oral dose of 25 mg/kg X 5 on day 7th

Structure (SMILES)	inhibition in vivo at 50 mg/kg [1] [%]	other results
NCCCN1CCN(c2ccccc2)CC1	37.2	
NCCCN1CCC(c2ccccc2)CC1	66	
N=C(N)NCCCN1CCCCC1	42.1	
CC1CCN(CCCN)CC1	54.5	
CCN1CCCN(CCCN2CCC(C)CC2)C1=O	25	
COC(=O)/N=C(\NCCCN1CCN(c2ccccc2)CC1)NC(=O)OC	73.8	
NCCCN1CCOCC1	45.8	
CN1CCN(CCCN)CC1	66.9	
COC(=O)/N=C(\NCCCN1CCC(c2ccccc2)CC1)NC(=O)OC	66.5	
CN1CCN(CCCN2CCCNC2=O)CC1	52.1	
COC(=O)/N=C(\NCCCN1CCCCC1)NC(=O)OC	56.2	
COC(=O)/N=C(\NCCCN1CCC(C)CC1)NC(=O)OC	78.4	inhibition in vivo at 100 mg/kg [2]: 46.4%; inhibition in vivo at 50 mg/kg [3]: 76.8%; inhibition in vivo at 25 mg/kg [4]: 80.9%; inhibition in vivo at 25 mg/kg [5]: 77.6%
N=C(N)NCCCN1CCC(c2ccccc2)CC1	57.7	
CN1CCN(CCCN=C(N)N)CC1	45.1	
N#CCCNCCCN1CCN(c2ccccc2)CC1	71	inhibition in vivo at 25 mg/kg [4]: 71.2%
COC(=O)/N=C(\NCCCN1CCC(c2ccccn2)CC1)NC(=O)OC	72.8	inhibition in vivo at 25 mg/kg [4]: 73.2%
CC1CCN(CCCNCCC#N)CC1	45	
COC(=O)/N=C(\NCCCN1CCOCC1)NC(=O)OC	80.2	
N#CCCNCCCN1CCC(c2ccccc2)CC1	43.4	
CN1CCN(CCCNCCC#N)CC1	78.1	
N#CCCNCCCN1CCCCC1	64.8	
NCCCN1CCCCC1	52.4	
CC1CCN(CCCN2CCCNC2=O)CC1	60.8	
NCCCN1CCC(c2ccccn2)CC1	48.7	
O=C1NCCCN1CCCN1CCCCC1	43	
CCN1CCCN(CCCN2CCCCC2)C1=O	41.2	
COC(=O)/N=C(\NCCCN1CCN(C)CC1)NC(=O)OC	85.5	
CC1CCN(CCCN=C(N)N)CC1	62.2	
